Values of other authors as cited in patent publication US20070099889A1, “Use of pseudan and pseudan inclusion bodies” (priority 2005, published 2007).

Conditions: isolated from filtrates of 4 to 6 week old culture of P. aeruginosa

## CCCCCCCCCc1cc(O)c2ccccc2n1 [4-hydroxy-2-nonylquinoline]
  antibiotic activity: exhibit antibiotic activity
